Laboratory results taken from ChEMBL document CHEMBL1147998, “Synthesis of pH-sensitive amphotericin B-poly(ethylene glycol) conjugates and study of their controlled release in vitro” (Bioorg Med Chem, 2007).

Experiment: Toxicity in iv dosed NMRI mouse after 14 days
Assay type: organism-based
Conditions: in vivo

SMILES: C[C@@H]1[C@H](O)[C@@H](C)/C=C/C=C/C=C/C=C/C=C/C=C/C=C/[C@H](O[C@@H]2O[C@H](C)[C@@H](O)[C@H](N)[C@@H]2O)C[C@@H]2O[C@](O)(C[C@@H](O)C[C@@H](O)[C@H](O)CC[C@@H](O)C[C@@H](O)CC(=O)O[C@H]1C)C[C@H](O)[C@H]2C(=O)O [AMPHOTERICIN B]
- LD50 at 336 h: 3.7 mg/kg
